Laboratory results: ChEMBL document CHEMBL2406999, “Vialinin A is a ubiquitin-specific peptidase inhibitor” (Bioorg Med Chem Lett, 2013)
Numbering of substitutions follows the chain as printed. Calls of active or inactive are those of the source. The rule behind the calls is not given here.

Columns and labels:
[1] = biological target: T1, Ubiquitin carboxyl-terminal hydrolase isozyme L1 (Homo sapiens, UniProt P09936); test: Inhibition of human UCH-L1 using Ub-AMC as substrate after 60 mins by fluorometric analysis
T1 sequence (P09936 whole entry): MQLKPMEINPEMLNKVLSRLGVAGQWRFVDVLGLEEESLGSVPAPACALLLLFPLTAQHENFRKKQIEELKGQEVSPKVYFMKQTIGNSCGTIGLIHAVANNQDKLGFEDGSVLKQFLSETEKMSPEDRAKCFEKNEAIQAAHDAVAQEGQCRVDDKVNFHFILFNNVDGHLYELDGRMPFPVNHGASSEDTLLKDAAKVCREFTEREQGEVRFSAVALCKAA

[2] = tested on: T2, Ubiquitin carboxyl-terminal hydrolase 5 (Homo sapiens), P45974 [H818A]; test: Competitive binding affinity to human USP5 H818A mutant by SDS-PAGE analysis in presence of biotin-DMT
T2 sequence (whole entry): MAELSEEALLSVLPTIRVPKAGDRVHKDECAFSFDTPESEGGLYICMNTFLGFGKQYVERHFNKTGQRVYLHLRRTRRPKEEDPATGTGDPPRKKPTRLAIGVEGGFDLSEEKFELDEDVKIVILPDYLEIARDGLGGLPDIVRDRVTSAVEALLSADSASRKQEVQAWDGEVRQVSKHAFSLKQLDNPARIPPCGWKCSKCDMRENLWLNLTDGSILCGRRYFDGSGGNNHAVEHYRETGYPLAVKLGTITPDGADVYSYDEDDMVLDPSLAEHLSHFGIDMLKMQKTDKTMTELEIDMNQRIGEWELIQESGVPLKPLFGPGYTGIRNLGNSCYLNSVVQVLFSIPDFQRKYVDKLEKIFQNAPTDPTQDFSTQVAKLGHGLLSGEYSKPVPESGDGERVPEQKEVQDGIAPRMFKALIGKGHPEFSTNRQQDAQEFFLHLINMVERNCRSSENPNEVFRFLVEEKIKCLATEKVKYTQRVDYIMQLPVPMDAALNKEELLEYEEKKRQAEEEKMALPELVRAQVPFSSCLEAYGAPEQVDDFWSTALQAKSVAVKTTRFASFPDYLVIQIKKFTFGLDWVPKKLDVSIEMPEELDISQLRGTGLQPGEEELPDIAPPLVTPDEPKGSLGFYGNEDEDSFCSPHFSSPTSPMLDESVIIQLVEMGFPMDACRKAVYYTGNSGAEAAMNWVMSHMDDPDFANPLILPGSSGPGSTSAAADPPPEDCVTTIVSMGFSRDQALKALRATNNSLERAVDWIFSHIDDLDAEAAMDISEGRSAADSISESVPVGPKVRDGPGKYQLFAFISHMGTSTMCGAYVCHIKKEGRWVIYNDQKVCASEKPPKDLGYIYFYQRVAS

[3] = tested on: T3, Ubiquitin carboxyl-terminal hydrolase 5 (Homo sapiens), P45974 [C335A]; test: Competitive binding affinity to human USP5 C335A mutant by SDS-PAGE analysis in presence of biotin-DMT
T3 sequence (whole entry): T2 sequence (whole entry) with C335A, A818H

[4] = biological target: T4, Ubiquitin carboxyl-terminal hydrolase 5 (Homo sapiens) (UniProt P45974); test: Competitive binding affinity to human recombinant USP5 after 1 hr by SDS-PAGE analysis in presence of biotin-DMT
T4 sequence (whole entry): T2 sequence (whole entry) with A818H

RBL-2H3 = test: Binding affinity to USP5 in rat RBL2H3 cell extracts at 10 to 40 uM by SDS-PAGE analysis

For `O=C(Cc1ccccc1)Oc1c(OC(=O)Cc2ccccc2)c(-c2ccc(O)cc2)c(O)c(O)c1-c1ccc(O)cc1` [VIALININ A], the IC50 [1] was 22.3 µM, the Activity [2] was “inactive” and the Activity [3] was “inactive”. The Activity [4] was “Active” and the Activity (RBL-2H3) was “inactive”.
